Earlier results on one molecule are cited in US11135586B2, “Fluorinated pickering emulsion” (The Board of Trustees of the Leland Stanford Junior …, priority 2014, dated 2021).

Turning to `O=C1OC2(c3ccc(O)cc3Oc3cc(O)ccc32)c2ccccc21` [fluorescein], the “Time without leakage in drops stabilized by surfactants” value was “at least 36 hours”.
